# Paper PMC3731988 (Molecular microbiology, 2013)
# Target: T1, threonine dehydrogenase (Tdh) (Escherichia coli, UniProt P07913)
# T1 sequence (P07913 1-341): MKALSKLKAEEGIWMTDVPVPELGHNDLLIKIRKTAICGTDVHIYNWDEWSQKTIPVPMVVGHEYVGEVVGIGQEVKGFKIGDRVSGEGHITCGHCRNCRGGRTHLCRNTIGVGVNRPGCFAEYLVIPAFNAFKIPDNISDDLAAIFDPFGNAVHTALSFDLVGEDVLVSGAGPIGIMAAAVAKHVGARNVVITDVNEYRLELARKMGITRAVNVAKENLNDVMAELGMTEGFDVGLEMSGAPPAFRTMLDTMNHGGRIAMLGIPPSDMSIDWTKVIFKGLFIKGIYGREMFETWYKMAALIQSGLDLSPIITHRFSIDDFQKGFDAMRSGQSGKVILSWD
# Experiment: NADH formation at […] nm
# Type: biochemical
# Conditions: Fe(II)-loaded enzyme; 30 mM threonine, 1 mM NAD+, 50 mM Tris-HCl pH 8.4, 25 °C, anaerobic
smiles,measurement,value
C[C@@H](O)[C@H](N)C(=O)O [threonine],NADH formation at 340 nm,"Tdh oxidizes threonine, with the production of NADH that can be monitored"
